Data from patent US20230303549A1, “SUBSTITUTED HETEROARYLOXYPYRIDINES, THE SALTS THEREOF AND THEIR USE AS HERBICIDAL AGENTS” (Bayer Aktiengesellschaft, priority 2020, published 2023).

Tests used:
Assay type in all cases: in vivo
[1] = tested on: Bassia scoparia (KCHSC); assay: Pre-emergence herbicide efficacy at 320 g/ha, greenhouse pot test
Summary of the method: (§1)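 Weed seeds were sown in sandy loam in pots, one mono- or dicot species per pot, and covered with soil. WP or EC formulations were sprayed onto the soil surface as aqueous suspension or emulsion with 0.5% additive at 600 L/ha water. Visual scoring after about 3 weeks, % activity versus untreated controls.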

[2] = tested on: Matricaria inodora (MATIN); assay: as above; conditions: visual scoring vs untreated control after about 3 weeks
Summary of the method: as §1

[3] = tested on: Stellaria media (STEME); assay: as above; conditions: visual scoring vs untreated control after about 3 weeks
Summary of the method: as §1

[4] = tested on: Amaranthus retroflexus (AMARE); assay: as above; conditions: visual scoring vs untreated control after about 3 weeks
Summary of the method: as §1

[5] = tested on: Poa annua (POAAN); assay: as above; conditions: visual scoring vs untreated control after about 3 weeks
Summary of the method: as §1

[6] = tested on: Echinochloa crus-galli (ECHCG); assay: as above; conditions: visual scoring vs untreated control after about 3 weeks
Summary of the method: as §1

[7] = tested on: Abutilon theophrasti (ABUTH); assay: as above; conditions: visual scoring vs untreated control after about 3 weeks
Summary of the method: as §1

[8] = tested on: Lolium rigidum (LOLRI); assay: as above; conditions: visual scoring vs untreated control after about 3 weeks
Summary of the method: as §1

[9] = tested on: Veronica persica (VERPE); assay: as above; conditions: visual scoring vs untreated control after about 3 weeks
Summary of the method: as §1

[10] = tested on: Digitaria sanguinalis (DIGSA); assay: as above; conditions: visual scoring vs untreated control after about 3 weeks
Summary of the method: as §1

[11] = tested on: Alopecurus myosuroides (ALOMY); assay: as above; conditions: visual scoring vs untreated control after about 3 weeks
Summary of the method: as §1

[12] = tested on: Setaria viridis (SETVI); assay: as above; conditions: visual scoring vs untreated control after about 3 weeks
Summary of the method: as §1

[13] = tested on: Stellaria media (STEME); assay: Post-emergence herbicidal efficacy at 320 g/ha, greenhouse pot test; conditions: visual rating vs untreated control after about 3 weeks
Summary of the method: (§2)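 Weeds sown in sandy loam and grown in greenhouse, sprayed at one-leaf stage (2–3 weeks after sowing) with WP or EC formulations plus 0.5% additive in 600 L/ha water. Visual activity rated after about 3 weeks against untreated controls (100% = plants dead, 0% = like control).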

[14] = tested on: Amaranthus retroflexus (AMARE); assay: as above; conditions: visual rating vs untreated control after about 3 weeks
Summary of the method: as §2

[15] = tested on: Veronica persica (VERPE); assay: as above; conditions: 320 g/ha, visual rating vs untreated control after about 3 weeks
Summary of the method: as §2

[16] = tested on: Alopecurus myosuroides (ALOMY); assay: as above; conditions: visual rating vs untreated control after about 3 weeks
Summary of the method: as §2

[17] = tested on: Polygonum convolvulus (POLCO); assay: Pre-emergence herbicide efficacy at 80 g/ha, greenhouse pot test; conditions: visual scoring vs untreated control after about 3 weeks
Description: (§3) Seeds of monocotyledonous and dicotyledonous weed plants and crop plants were placed in plastic or organic planting pots and covered with soil. The compounds of the invention, formulated in the form of wettable powders (WP) or as emulsion concentrates (EC), were then applied to the surface of the covering soil as aqueous suspension or emulsion with addition of 0.5% additive at a water application rate of […] (converted). After the treatment, the pots were placed in a greenhouse and kept under good growth conditions for the test plants. After about 3 weeks, the effect of the preparations was scored visually in comparison with untreated controls as percentages. For example, 100% activity=the plants have died, 0% activity=like control plants. Tables D1 to D12 below show the effects of selected compounds of the general formula (I) according to Table 1 on various harmful plants and an application rate corresponding to 80 g/ha, which were obtained by the experimental procedure mentioned above.

[18] = tested on: Amaranthus retroflexus (AMARE); assay: as above; conditions: visual scoring vs untreated control after about 3 weeks
Description: as §3

[19] = tested on: Abutilon theophrasti (ABUTH); assay: as above; conditions: visual scoring vs untreated control after about 3 weeks
Description: as §3

[20] = tested on: Viola tricolor (VIOTR); assay: as above; conditions: visual scoring vs untreated control after about 3 weeks
Description: as §3

[21] = tested on: Veronica persica (VERPE); assay: as above; conditions: visual scoring vs untreated control after about 3 weeks
Description: as §3

[22] = tested on: Alopecurus myosuroides (ALOMY); assay: as above; conditions: visual scoring vs untreated control after about 3 weeks
Description: as §3

[23] = tested on: Amaranthus retroflexus (AMARE); assay: Post-emergence herbicidal efficacy at 80 g/ha, greenhouse pot test; conditions: visual rating vs untreated control after about 3 weeks
Method: (§4) Seeds of monocotyledonous and dicotyledonous weeds and crop plants were placed in sandy loam in plastic or organic planting pots, covered with soil and cultivated in a greenhouse under controlled growth conditions. 2 to 3 weeks after sowing, the test plants were treated at the one-leaf stage. The compounds of the invention, formulated in the form of wettable powders (WP) or as emulsion concentrates (EC), were then sprayed onto the green parts of the plants as aqueous suspension or emulsion with addition of 0.5% additive at a water application rate of 600 l/ha (converted). After the test plants had been kept in the greenhouse under optimum growth conditions for about 3 weeks, the activity of the preparations was rated visually in comparison to untreated controls. For example, 100% activity=the plants have died, 0% activity=like control plants. Tables B1 to B6 below show the effects of selected compounds of the general formula (I) according to Table 1 on various harmful plants and an application rate corresponding to 80 g/ha, which were obtained by the experimental procedure mentioned above.

[24] = tested on: Viola tricolor (VIOTR); assay: as above; conditions: visual rating vs untreated control after about 3 weeks
Method: as §4

[25] = tested on: Alopecurus myosuroides (ALOMY); assay: as above; conditions: visual rating vs untreated control after about 3 weeks
Method: as §4

[26] = tested on: Bassia scoparia (KCHSC); assay: Post-emergence herbicidal efficacy at 320 g/ha, greenhouse pot test; conditions: visual rating vs untreated control after about 3 weeks
Summary of the method: as §2

[27] = tested on: Poa annua (POAAN); assay: as above; conditions: visual rating vs untreated control after about 3 weeks
Summary of the method: as §2

[28] = tested on: Abutilon theophrasti (ABUTH); assay: as above; conditions: visual rating vs untreated control after about 3 weeks
Summary of the method: as §2

[29] = tested on: Veronica persica (VERPE); assay: Post-emergence herbicidal efficacy at 80 g/ha, greenhouse pot test; conditions: visual rating vs untreated control after about 3 weeks
Method: as §4

[30] = tested on: Matricaria inodora (MATIN); assay: Pre-emergence herbicide efficacy at 80 g/ha, greenhouse pot test; conditions: visual scoring vs untreated control after about 3 weeks
Description: as §3

[31] = tested on: Setaria viridis (SETVI); assay: as above; conditions: visual scoring vs untreated control after about 3 weeks
Description: as §3

[32] = 320 g/ha, visual scoring vs untreated control after about 3 weeks

Compound | Pre-emergence efficacy against Bassia scoparia (KCHSC) [1, 32] [%] | Pre-emergence efficacy against Matricaria inodora (MATIN) [2] [%] | Pre-emergence efficacy against Stellaria media (STEME) [3] [%] | Pre-emergence efficacy against Amaranthus retroflexus (AMARE) [4] [%] | Pre-emergence efficacy against Poa annua (POAAN) [5] [%] | Pre-emergence efficacy against Echinochloa crus-galli (ECHCG) [6] [%] | Pre-emergence efficacy against Abutilon theophrasti (ABUTH) [7] [%] | Pre-emergence efficacy against Lolium rigidum (LOLRI) [8] [%] | Pre-emergence efficacy against Veronica persica (VERPE) [9] [%] | Pre-emergence efficacy against Alopecurus myosuroides (ALOMY) [11] [%] | Pre-emergence efficacy against Setaria viridis (SETVI) [12] [%] | Post-emergence action against Stellaria media (STEME) [13] [%] | Post-emergence efficacy against Amaranthus retroflexus (AMARE) [14] [%] | Post-emergence efficacy against Veronica persica (VERPE) [15] [%] | Pre-emergence efficacy against Amaranthus retroflexus (AMARE) [18] [%] | Pre-emergence efficacy against Viola tricolor (VIOTR) [20] [%] | Pre-emergence efficacy against Veronica persica (VERPE) [21] [%] | Pre-emergence efficacy against Alopecurus myosuroides (ALOMY) [22] [%] | Post-emergence efficacy against Amaranthus retroflexus (AMARE) [23] [%] | Post-emergence efficacy against Viola tricolor (VIOTR) [24] [%] | also measured
Cc1cc(C)c(-c2cc(C(F)(F)F)no2)c(Oc2ncc(Cl)cn2)n1 [Example I-2] | 90 | 100 | 100 | 100 | 100 | 100 | 100 | 90 | 100 | 100 | 100 | 100 | 100 | 100 | 100 | 90 | 90 | 80 | 100 | 90 | Pre-emergence efficacy against Digitaria sanguinalis (DIGSA) [10]: 100%; Post-emergence efficacy against Alopecurus myosuroides (ALOMY) [16]: 90%; Pre-emergence efficacy against Polygonum convolvulus (POLCO) [17]: 80%; Pre-emergence efficacy against Abutilon theophrasti (ABUTH) [19]: 90%; Post-emergence efficacy against Alopecurus myosuroides (ALOMY) [25]: 90%
Cc1cc(C)c(-c2cc(C(F)F)no2)c(Oc2ccc(C#N)cn2)n1 [Example I-292] |  | 100 | 100 | 100 |  |  | 90 |  | 90 |  | 90 | 100 | 100 | 100 | 100 | 90 | 90 | 80 | 90 | 90 | Pre-emergence efficacy against Bassia scoparia (KCHSC) ([1]; dosage 1280 g/ha in Table C6, visual scoring after about 3 weeks): 100%; Post-emergence efficacy against Bassia scoparia (KCHSC) [26]: 90%; Post-emergence efficacy against Poa annua (POAAN) [27]: 100%; Post-emergence efficacy against Abutilon theophrasti (ABUTH) [28]: 90%; Post-emergence efficacy against Veronica persica (VERPE) [29]: 90%
Cc1cc(C)c(-c2cc(C(F)F)no2)c(Oc2ncc(Cl)cn2)n1 [Example I-1] | 90 | 100 | 100 | 100 | 100 | 100 | 100 | 90 | 100 | 100 | 100 | 100 | 100 | 100 | 100 | 90 | 90 | 90 | 100 | 90 | Post-emergence efficacy against Bassia scoparia (KCHSC) [26]: 90%; Post-emergence efficacy against Poa annua (POAAN) [27]: 90%; Post-emergence efficacy against Abutilon theophrasti (ABUTH) [28]: 90%; Post-emergence efficacy against Alopecurus myosuroides (ALOMY) [16]: 90%; Pre-emergence efficacy against Polygonum convolvulus (POLCO) [17]: 90%; Pre-emergence efficacy against Matricaria inodora (MATIN) [30]: 100%; Pre-emergence efficacy against Abutilon theophrasti (ABUTH) [19]: 80%; Pre-emergence efficacy against Setaria viridis (SETVI) [31]: 80%
